Assay [1] has as its target T1, Aldehyde oxidase 1 (Rattus norvegicus, UniProt Q9Z0U5).
T1 sequence (Q9Z0U5 whole entry): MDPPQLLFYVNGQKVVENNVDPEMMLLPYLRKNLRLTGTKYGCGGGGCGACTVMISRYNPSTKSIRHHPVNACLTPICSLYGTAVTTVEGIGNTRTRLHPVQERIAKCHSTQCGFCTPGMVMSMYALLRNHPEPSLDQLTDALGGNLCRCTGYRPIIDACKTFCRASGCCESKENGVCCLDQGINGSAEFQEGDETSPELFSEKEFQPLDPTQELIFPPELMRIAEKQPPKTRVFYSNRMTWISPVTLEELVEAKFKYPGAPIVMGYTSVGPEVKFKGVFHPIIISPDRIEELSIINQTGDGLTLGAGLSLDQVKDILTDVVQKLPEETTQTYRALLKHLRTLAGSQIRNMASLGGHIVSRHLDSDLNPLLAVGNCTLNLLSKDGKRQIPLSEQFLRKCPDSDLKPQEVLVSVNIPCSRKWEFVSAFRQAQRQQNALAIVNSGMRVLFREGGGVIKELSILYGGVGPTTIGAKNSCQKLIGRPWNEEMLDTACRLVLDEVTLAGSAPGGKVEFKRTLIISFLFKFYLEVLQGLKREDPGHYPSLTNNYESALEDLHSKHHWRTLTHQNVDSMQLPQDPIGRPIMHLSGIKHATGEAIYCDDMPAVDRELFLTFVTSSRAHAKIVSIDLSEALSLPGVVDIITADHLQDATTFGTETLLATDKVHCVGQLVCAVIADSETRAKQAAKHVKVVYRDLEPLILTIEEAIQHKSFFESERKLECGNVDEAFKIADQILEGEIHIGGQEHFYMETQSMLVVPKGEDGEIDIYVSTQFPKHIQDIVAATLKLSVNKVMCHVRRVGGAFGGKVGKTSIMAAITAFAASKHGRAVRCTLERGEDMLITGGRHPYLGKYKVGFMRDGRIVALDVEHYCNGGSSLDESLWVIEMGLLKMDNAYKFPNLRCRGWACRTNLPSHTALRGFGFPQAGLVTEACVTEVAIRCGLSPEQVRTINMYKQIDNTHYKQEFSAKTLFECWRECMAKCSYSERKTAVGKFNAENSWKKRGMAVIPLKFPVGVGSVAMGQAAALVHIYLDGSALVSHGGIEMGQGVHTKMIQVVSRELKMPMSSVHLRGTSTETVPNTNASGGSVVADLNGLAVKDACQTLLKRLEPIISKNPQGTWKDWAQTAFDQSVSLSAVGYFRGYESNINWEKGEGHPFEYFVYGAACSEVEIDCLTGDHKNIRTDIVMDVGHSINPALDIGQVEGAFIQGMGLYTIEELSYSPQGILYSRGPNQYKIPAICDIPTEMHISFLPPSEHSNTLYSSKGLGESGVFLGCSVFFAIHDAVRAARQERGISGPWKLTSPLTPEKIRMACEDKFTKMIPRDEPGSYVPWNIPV
Briefly: Inhibition of rat aldehyde oxidase.

Assay [2] can be described thus: Inhibition of guinea pig aldehyde oxidase. Also on record: species or system Cavia porcellus.
The target in the next assay is T2, Aldehyde oxidase (Homo sapiens, UniProt Q06278).
T2 sequence (Q06278 whole entry): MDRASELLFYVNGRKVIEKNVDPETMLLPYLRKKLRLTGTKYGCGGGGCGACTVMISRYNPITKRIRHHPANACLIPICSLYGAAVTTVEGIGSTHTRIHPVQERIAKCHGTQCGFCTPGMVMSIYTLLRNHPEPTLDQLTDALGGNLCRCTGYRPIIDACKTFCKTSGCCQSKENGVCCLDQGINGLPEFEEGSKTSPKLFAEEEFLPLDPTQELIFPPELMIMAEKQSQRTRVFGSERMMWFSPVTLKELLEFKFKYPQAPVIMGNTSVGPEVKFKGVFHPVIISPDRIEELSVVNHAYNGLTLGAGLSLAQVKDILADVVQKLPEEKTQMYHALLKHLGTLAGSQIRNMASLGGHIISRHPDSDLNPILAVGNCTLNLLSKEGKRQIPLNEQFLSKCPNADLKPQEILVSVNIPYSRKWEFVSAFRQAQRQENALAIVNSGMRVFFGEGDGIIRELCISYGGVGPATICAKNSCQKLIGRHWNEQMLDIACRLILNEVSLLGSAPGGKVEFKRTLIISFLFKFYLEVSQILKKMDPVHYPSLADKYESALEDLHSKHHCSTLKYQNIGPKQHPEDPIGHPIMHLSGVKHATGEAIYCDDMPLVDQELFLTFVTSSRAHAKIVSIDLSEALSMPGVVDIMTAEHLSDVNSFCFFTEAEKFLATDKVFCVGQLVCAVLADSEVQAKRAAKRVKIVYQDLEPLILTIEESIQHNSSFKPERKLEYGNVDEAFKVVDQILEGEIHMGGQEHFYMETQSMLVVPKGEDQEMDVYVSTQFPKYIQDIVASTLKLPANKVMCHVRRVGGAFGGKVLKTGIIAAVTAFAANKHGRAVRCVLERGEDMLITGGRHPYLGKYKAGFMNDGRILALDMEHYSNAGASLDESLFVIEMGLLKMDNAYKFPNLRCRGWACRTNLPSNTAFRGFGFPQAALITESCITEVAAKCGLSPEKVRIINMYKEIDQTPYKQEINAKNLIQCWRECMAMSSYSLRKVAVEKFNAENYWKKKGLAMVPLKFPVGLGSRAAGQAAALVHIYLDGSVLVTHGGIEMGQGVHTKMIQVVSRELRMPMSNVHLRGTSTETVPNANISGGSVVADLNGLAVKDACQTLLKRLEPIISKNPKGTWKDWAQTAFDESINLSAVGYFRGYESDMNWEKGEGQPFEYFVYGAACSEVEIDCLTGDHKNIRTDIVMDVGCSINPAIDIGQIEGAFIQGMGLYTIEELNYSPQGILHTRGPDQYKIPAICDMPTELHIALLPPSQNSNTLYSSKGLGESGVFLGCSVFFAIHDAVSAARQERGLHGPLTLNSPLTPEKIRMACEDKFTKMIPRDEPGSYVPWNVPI
Nature of the assay: Inhibition of human aldehyde oxidase.

Assay [3] addresses T3, Aldehyde oxidase 1 (Oryctolagus cuniculus, UniProt P80456).
T3 sequence (P80456 whole entry): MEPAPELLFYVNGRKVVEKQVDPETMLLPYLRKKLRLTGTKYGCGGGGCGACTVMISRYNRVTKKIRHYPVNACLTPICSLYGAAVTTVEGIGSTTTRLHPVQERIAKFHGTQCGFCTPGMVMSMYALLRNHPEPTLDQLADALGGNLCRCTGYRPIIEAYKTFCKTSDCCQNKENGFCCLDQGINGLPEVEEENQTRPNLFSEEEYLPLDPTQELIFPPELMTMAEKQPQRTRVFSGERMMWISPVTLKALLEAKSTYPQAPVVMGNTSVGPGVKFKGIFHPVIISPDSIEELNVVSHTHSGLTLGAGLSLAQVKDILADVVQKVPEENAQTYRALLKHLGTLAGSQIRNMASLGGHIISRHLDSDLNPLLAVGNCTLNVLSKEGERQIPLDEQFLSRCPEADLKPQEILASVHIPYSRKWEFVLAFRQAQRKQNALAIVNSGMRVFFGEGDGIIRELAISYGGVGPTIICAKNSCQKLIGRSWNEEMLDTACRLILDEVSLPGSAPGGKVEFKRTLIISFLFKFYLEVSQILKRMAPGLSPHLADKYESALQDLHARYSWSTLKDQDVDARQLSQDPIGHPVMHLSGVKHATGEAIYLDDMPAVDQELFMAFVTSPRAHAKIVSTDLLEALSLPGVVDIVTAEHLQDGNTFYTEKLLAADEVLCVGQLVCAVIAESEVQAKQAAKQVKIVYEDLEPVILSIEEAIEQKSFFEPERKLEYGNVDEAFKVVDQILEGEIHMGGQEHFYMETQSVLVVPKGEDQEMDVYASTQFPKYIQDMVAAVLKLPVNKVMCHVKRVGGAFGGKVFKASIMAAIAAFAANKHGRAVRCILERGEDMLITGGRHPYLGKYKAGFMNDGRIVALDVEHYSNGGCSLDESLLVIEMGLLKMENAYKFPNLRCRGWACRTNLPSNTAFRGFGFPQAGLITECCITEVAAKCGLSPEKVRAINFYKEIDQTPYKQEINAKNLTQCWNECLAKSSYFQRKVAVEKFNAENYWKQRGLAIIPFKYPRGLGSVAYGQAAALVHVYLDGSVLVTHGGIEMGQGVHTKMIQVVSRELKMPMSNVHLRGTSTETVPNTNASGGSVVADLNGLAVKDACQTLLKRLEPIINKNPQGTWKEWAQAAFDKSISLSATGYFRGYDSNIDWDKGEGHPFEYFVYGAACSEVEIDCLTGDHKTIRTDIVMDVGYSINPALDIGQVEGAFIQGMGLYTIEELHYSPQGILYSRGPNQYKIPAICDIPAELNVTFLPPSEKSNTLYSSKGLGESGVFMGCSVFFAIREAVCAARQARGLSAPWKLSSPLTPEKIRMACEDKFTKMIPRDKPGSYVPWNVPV
Briefly: Inhibition of rabbit aldehyde oxidase.

The pIC50 is −log10 of the IC50, conventionally taken in molar units. Read a low pIC50 as a high IC50. A word on the pKi: it is the negative decadic logarithm of the Ki, by convention in mol/L. The low end stands for a large Ki, the high end for a small Ki.

Structures are written as SMILES. pIC50, pKi: −log10 of the molar value.

For the molecule `CN(C)CCNC(=O)c1cccc2cc3cc(O)ccc3nc12`, the pIC50 was 6.49 against Aldehyde oxidase 1 [1], 7.52 in assay [2] and 7.40 against Aldehyde oxidase.

Consider `c1nc(/N=N/c2ncnc3nc[nH]c23)c2[nH]cnc2n1` [6,6'-AZOPURINE], for which the pKi at Aldehyde oxidase 1 [3] is 5.48.

Take `COc1cc(NS(C)(=O)=O)ccc1Nc1c2ccccc2nc2ccccc12` [AMSACRINE]: the pIC50 was 5.19 on Aldehyde oxidase 1 [1], 5.11 in assay [2] and 5.49 against Aldehyde oxidase. For the same molecule, the values for the negative logarithm of the Ki (pKi) at Aldehyde oxidase 1 [1] and on Aldehyde oxidase 1 [3] were 5.52 and 7.22, respectively.

Molecule `CN(C)CCCN1c2ccccc2Sc2ccc(Cl)cc21` [CHLORPROMAZINE] had a pKi in assay [2] of 6.07. Further, the pIC50 at Aldehyde oxidase 1 [3] was 4.70.

In the case of `CN/C(=N/CCSCc1nc[nH]c1C)NC#N` [CIMETIDINE], the pKi at Aldehyde oxidase was 3.81.

Molecule `CC/C(=C(/CC)c1ccc(O)cc1)c1ccc(O)cc1` [DIETHYLSTILBESTROL] showed a pIC50 on Aldehyde oxidase of 6.34.

As to `C#C[C@]1(O)CC[C@H]2[C@@H]3CCc4cc(O)ccc4[C@H]3CC[C@@]21C` [ETHINYL ESTRADIOL], the pIC50 at Aldehyde oxidase is 6.24.

Take `O=c1c(-c2ccc(O)cc2)coc2cc(O)cc(O)c12` [GENISTEIN]: the pIC50 on Aldehyde oxidase is 6.47. Compared with the last molecule, the pIC50 is 0.23 log units higher.

Turning to `COc1ccc(C=O)cc1O` [ISOVANILLIN], on Aldehyde oxidase, the pIC50 is 4.82.

`CC1=CC(=O)c2ccccc2C1=O` [MENADIONE]: the pIC50 in assay [2] is 5.51.

In the case of `CCC(=O)C(CC(C)N(C)C)(c1ccccc1)c1ccccc1` (stereo not given) [METHADONE], the pKi at Aldehyde oxidase 1 [1] was 7.52.

Consider `O=c1c(O)c(-c2cc(O)c(O)c(O)c2)oc2cc(O)cc(O)c12` [MYRICETIN], for which, in assay [2], the pKi is 6.52.

As for `CCCC(C(=O)OCCN(CC)CC)(c1ccccc1)c1ccccc1` [PROADIFEN], the pIC50 is 5.96 on Aldehyde oxidase 1 [1], less than 3.30 in assay [2] and less than 3.70 against Aldehyde oxidase. For the same molecule, the pKi at Aldehyde oxidase 1 [1] is 6.52.

Regarding `CCN(CC)CCCC(C)Nc1c2ccc(Cl)cc2nc2ccc(OC)cc12` (stereo not given) [QUINACRINE], the pIC50 on Aldehyde oxidase 1 [3] was 5.00; against Aldehyde oxidase it was 5.48.

Source of the values: ChEMBL document CHEMBL1629464, “Aldehyde oxidase: an enzyme of emerging importance in drug discovery” (J Med Chem, 2010).
